{
  "source": "patent US9851354B2",
  "about": "“Methods of treating fragile X syndrome and related disorders” (Alcobra Ltd., priority 2013, dated 2017)",
  "origin": "cited, not measured here",
  "conditions": "cited from earlier work",
  "key": {"[1]": {"conditions": "randomized placebo-controlled trial in autistic children (McCracken 2002)"}},
  "data": [
    {"smiles": "Cc1nc2n(c(=O)c1CCN1CCC(c3noc4cc(F)ccc34)CC1)CCCC2", "note": "[risperidone]", "values": [
      {"measurement": "social isolation and communication", "setting": "autistic children", "result": "not improved"},
      {"measurement": "adverse events", "setting": "[1]", "result": "weight gain, increased appetite, fatigue, drowsiness, dizziness, and drooling"},
      {"measurement": "irritability subscale of the Aberrant Behavior Checklist and Clinical Global Impressions-Improvement", "setting": "[1]", "result": "significant improvement"},
      {"measurement": "adverse side effects associated with use", "setting": "use in autistic children", "result": "extrapyramidal symptoms and dyskinesias"}
    ]}
  ]
}
